According to patent US9234242B2, “Methods for treating depression using NCAM peptide mimetics” (THE BOARD OF THE TRUSTEES OF THE LELAND STANFORD JUNIOR …, priority 2005, dated 2016):

Assays:
[1] = system: Rodents; assay: Forced swim test (FST) after microinjection; assay type: in vivo, rats; details: microinjection (intracerebroventricular), versus controls
Description: (§1) In another embodiment, the present invention provides methods for altering the behavioral profiles of rats by injecting the rats with FGF2, an NCAM peptide mimetic, and a peptide inhibitor of FGF receptors. Both FGF2 and the NCAM peptide mimetic have antidepressant-like effects in the forced swim test when injected intracerebroventricularly. […] In one embodiment of the invention, ligands that activate FGF receptors are used for their antidepressant effects in the therapeutic treatment of individuals with MDD.
(§2) This is indicative of less depression-like behavior in FGF2 animals.
(§3) Again, this is an index of less depression-like behavior. This is also in the same direction as the FGF2 data, consistent with the fact that both FGF2 and NCAM interact with the FGF receptor.
(§4) These observations are nevertheless consistent with the conclusions drawn from the microinjection studies above.

[2] = system: Rodents; assay: Elevated plus maze (EPM) after microinjection; assay type: in vivo, rats; details: microinjection (intracerebroventricular), versus controls
Description: as §1, §2, §3, §4

[3] = system: rats; assay: Elevated plus-maze (EPM) and light-dark (LD) anxiety test after chronic administration; assay type: in vivo; details: 5 ng/g i.p. every 48 hours for 3 weeks
Description: Anxiety disorders have a high comorbidity with other neuropsychiatric disorders including Major Depression (MD). […] Rats were placed into “high anxiety” (LR) or “low anxiety” (HR) groups based on their behavior in a variety of motor and behavioral tests. Both groups of animals were administered either FGF2 (5 ng/g) or vehicle by intraperitoneal injection every 48 hours for 3 weeks. One day after the last FGF2 injection, all animals were tested in the elevated plus-maze (EPM) and light-dark (LD) anxiety test.
The apparatus for the EPM test is constructed of black Plexiglass with […] (70 cm from the floor, 45 cm long, and 12 cm wide). Illumination is provided by a 40-watt desk lamp facing a wall and placed behind one of the closed arms. The scientists put the animal inside the system. Animals that are less anxious spend more time in the open arms whereas animals that are more anxious spend less time in the open arms.
The LD test is conducted in a 30×60×30-cm Plexiglas shuttle box with a translucent cover. Each box is divided into two equal-sized compartments by a wall with a 12 cm-wide open door. One compartment is painted white and brightly illuminated, and the other is painted black with very dim light. The time each rat spends in each compartment is monitored by rows of five photocells located 2.5 cm above the grid floor of each compartment. […]

[4] = system: FGFR2 and FGFR3 exon IIIc:IIIb splice variant ratio; assay: Real time RT-PCR of exon IIIc:IIIb splice variant ratio in frontal cortex, chronic unpredictable stress; assay type: in vivo, rats; details: 5 ng/g i.p. every 48 hours for three weeks
Description: Half of the rats (n=12) were administered vehicle (0.1M PBS with 100 μg/mL bovine serum albumin), and the other half (n=12) were administered human recombinant FGF2 dissolved in vehicle in 5 ng/g dosages (Sigma, St. Louis, Mo.) every 48 hours for three weeks. All treatments were injected intra-peritoneally. During the same three week period as the FGF2 treatments, the vehicle group was either handled (n=6) or exposed to CUS (n=6). Likewise, the FGF2 injected group was either handled (n=6) or exposed to CUS (n=6). […]
Gross dissections were performed on the frontal cortex of all brains. […] Using the Bioanalyzer's concentration readings, the samples were normalized to 25 ng/μL of total RNA per subject and stored at −80° C.
cDNA was synthesized using the iScript cDNA Synthesis Kit (Bio-Rad, Hercules, Calif.). […] The double-stranded cDNA solutions were then analyzed for quality and concentration using Invitrogen's Quant-iT PicoGreen dsDNA kit. […] The fluorescently labeled samples were analyzed with a 1420 Victor^2 Multilabel Counter (EG&G Wallac, Wellesley, Mass.) using the basic Fluorescein protocol. […]
Sequences for rat FGFR2 and FGFR3 exons were obtained from NCBI's Entrez Gene database (www.ncbi.nlm.nih.gov) and the Ensembl-Rat gene database (www.ensembl.org). […] FGFR2 and FGFR3 exon sequences were analyzed for secondary structure using the Mfold nucleic acid folding web server. […]

[5] = system: genes associated with neural plasticity; assay: Long-term changes in hippocampal gene expression (histochemical and RNA expression assays); assay type: in vivo; details: adult rats, 20 ng/g s.c. the day after birth
Description: (§5) Sprague-Dawley rats were injected with either vehicle or FGF2 (20 ng/g, s.c.) the day after birth and sacrificed after Morris water maze testing as adults. We assessed changes in gene expression using both a candidate approach and a gene discovery approach with laser-capture microdissection of the dentate gyrus followed by microarray analyses.

[6] = system: Sprague-Dawley rats; assay: Morris water maze learning and memory test in adults after early postnatal injection; assay type: in vivo; details: 20 ng/g s.c. the day after birth, tested as adults; vehicle-injected rats 25 seconds
Description: as §5

## FGF system peptide inhibitor: FGF system peptide inhibitor, amino acid sequence=HFKDPKRLY; SEQ ID NO:35 (FGF system peptide inhibitor) [reference compound]
[1]
  climbing in the FST: significantly less climbing
  immobility in the FST: more immobility
  swimming in the FST: less swimming
[2]
  time in the center quadrant of the EPM: significantly more time
  time in the closed arms of the EPM: less time
  time in the open arms of the EPM: equal time

## NCAM: NCAM (FGL peptide), amino acid sequence=EVYVVAENQQGKSKA (SEQ ID NO:34); interacts with the FGF receptor (NCAM (FGL peptide))
[1]
  immobility in the FST: less immobility
[2]
  time in the center quadrant of the EPM: significantly less time
  time in the closed arms of the EPM: more time (although not significantly more time)
  time in the open arms of the EPM: less time

## FGF2: FGF receptor ligand; human recombinant FGF2 (Sigma) in Example 6
[3]; LR versus HR rats
  anxiety-reducing effects in innately more anxious (LR) rats: clearly more pronounced
[3]; time in the light compartment (FIG. 9)
  anxiety versus animals who receive vehicle: less anxious
[4]
  effect on the magnitude of ratio changes caused by stress: nor did it significantly affect
[4]; P>0.1
  effect on the IIIc:IIIb ratio in the NS or S group: did not alter the IIIc:IIIb ratio significantly
[1]
  immobility in the FST: less immobility
  swimming in the FST: more swimming
[5]
  expression of CCK: increased
  expression of GAP-43: increased
  expression of NCAM: decreased
  expression of Rgs4: increased
  expression of SST: increased
  expression of Vgf: increased
  expression of trkB: increased
[2]
  time in the closed arms of the EPM: significantly more time
  time in the open arms of the EPM: less time
[6]
  time on average to find a hidden platform in Morris Water maze test: 20 s
